The test system of this experiment is NCI-H226. The experiment is described as follows: 72H TEAD Proliferation Assay (Cell Titer Glo 2.0). The settings on record: Homo sapiens, NCI-H226, 72 h, CTG 2.0, cell line not given (NCI-H226 responsive, NCI-H28 non-responsive). In kind it is cell-based. The method, boiled down: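 Growth read-out is ATP luminescence (CellTiter-Glo 2.0) after 72 h compound exposure, corrected for no-CTG background and day-0 values, with GI50 from nonlinear regression. Sensitive line NCI-H226 (NF2-deficient); non-responsive NCI-H28 (NF2 wild type) distinguishes TEAD-driven from nonspecific growth inhibition.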
In turn, `CC(C)(C)c1ccc(-c2nc3cc(C(=O)O)cc(CO)c3n3cccc23)cc1` [I-279, 4-(4-(tert-butyl)phenyl)-9-(hydroxymethyl)pyrrolo[1,2-a]quinoxaline-7-carboxylic acid] yielded a 50% growth inhibitory concentration (GI50) of 1 to 5 µM. In turn, `O=C(O)c1ccc2c(c1)nc(C13CC(C(F)(F)F)(C1)C3)c1cccn12` [I-272, 4-(3-(trifluoromethyl)bicyclo[1.1.1]pentan-1-yl)pyrrolo[1,2-a]quinoxaline-7-carboxylic acid] came in with a GI50 of 1 to 5 µM.

As to `C=CC(=O)NCc1nc(-c2ccc(C(F)(F)F)cc2)cn2ccnc12` [I-408, N-((6-(4-(trifluoromethyl)phenyl)imidazo[1,2-a]pyrazin-8-yl)methyl)acrylamide], the GI50 is no more than 1 µM. The value for `CC(C)(C)C1CCN(c2nc3cc(C(=O)O)ccc3n3cccc23)CC1` [I-37, 4-(4-(tert-Butyl)piperidin-1-yl)pyrrolo[1,2-a]quinoxaline-7-carboxylic acid] was greater than 10 µM. With `C=CC(=O)NCc1nc(-c2ccc(C(F)(F)F)cc2)c2ccncc2n1` [I-309, N-((4-(4-(trifluoromethyl)phenyl)pyrido[3,4-d]pyrimidin-2-yl)methyl)acrylamide] the figure was no more than 1 µM. The molecule `O=C(O)c1ccc2c(c1)nc(C1CCC1)c1nccn12` [I-71, 4-Cyclobutylimidazo[1,2-a]quinoxaline-7-carboxylic acid] gave a concentration for 50% growth inhibition (GI50) greater than 10 µM.

For the molecule `COC(=O)/C=C/c1cn2ccnc2c(-c2ccc(C(C)(C)C)cc2)n1` [I-151, Methyl (E)-3-(8-(4-(tert-butyl)phenyl)imidazo[1,2-a]pyrazin-6-yl)acrylate], the GI50 was greater than 10 µM. With `COC[C@H](C)NC(=O)c1cnc2c(N3CCC(CC(F)(F)F)CC3)cc(OC)cc2c1` [I-253, (S)-6-methoxy-N-(1-methoxypropan-2-yl)-8-(4-(2,2,2-trifluoroethyl)piperidin-1-yl)quinoline-3-carboxamide] the figure was 1 to 5 µM.

In turn, `CC(=O)Nc1ccc2c(c1)nc(-c1ccc(C(C)(C)C)cc1)c1nccn12` [I-135, N-(4-(4-(tert-butyl)phenyl)imidazo[1,2-a]quinoxalin-7-yl)acetamide] showed a 50% growth inhibitory concentration (GI50) of 1 to 5 µM.

`Cc1nc(-c2ccc(C(F)(F)F)cc2)nc2cc(C(=O)O)ccc12` [I-435, 4-methyl-2-(4-(trifluoromethyl)phenyl)quinazoline-7-carboxylic acid]: the GI50 was 1 to 5 µM. With `C=CC(=O)Nc1ccc2c(c1)nc(-c1ccc(C(F)(F)F)cn1)c1cccn12` [I-202, N-(4-(5-(trifluoromethyl)pyridin-2-yl)pyrrolo[1,2-a]quinoxalin-7-yl)acrylamide] the figure was no more than 1 µM. The value for `O=C(O)c1ccc2c(c1)nc(-c1ccc(C(F)(F)F)cc1F)c1cccn12` [I-50, 4-(2-fluoro-4-(trifluoromethyl)phenyl) pyrrolo[1,2-a] quinoxaline-7-carboxylic acid] was no more than 1 µM. With `O=C(O)c1ccc2c(c1)nc(N1CCC3(CCCCC3)CC1)c1cccn12` [I-30, 4-(3-Azaspiro[5.5]undecan-3-yl)pyrrolo[1,2-a]quinoxaline-7-carboxylic acid] the figure was 1 to 5 µM; with `O=C(O)c1ccc2c(c1)nc(C1CC1)c1nccn12` [I-70, 4-Cyclopropylimidazo[1,2-a]quinoxaline-7-carboxylic acid], greater than 10 µM; with `C=CC(=O)Nc1ccc2ccc(-c3ccc(C(C)(C)C)cc3)nc2c1` [I-106, N-(2-(4-(tert-butyl)phenyl)quinolin-7-yl)acrylamide], 1 to 5 µM. In turn, `COc1cc(-c2ccc(C(F)(F)F)cc2)nc2cc(C3(O)COC3)ccc12` [I-419, 3-(4-methoxy-2-(4-(trifluoromethyl)phenyl)quinolin-7-yl)oxetan-3-ol] gave a concentration for 50% growth inhibition (GI50) of 1 to 5 µM. `C=CC(=O)N1CC(c2cn3ccnc3c(-c3ccc(C(F)(F)F)cc3)n2)C1` [I-245, 1-(3-(8-(4-(Trifluoromethyl)phenyl)imidazo[1,2-a]pyrazin-6-yl)azetidin-1-yl)prop-2-en-1-one]: the GI50 is no more than 1 µM. As to `C=CC(=O)NC(C)c1cn2ccnc2c(-c2ccc(C(C)(C)C)cc2)n1` (stereo not drawn) [I-142, N-(1-(8-(4-(tert-butyl)phenyl)imidazo[1,2-a]pyrazin-6-yl)ethyl)acrylamide], the GI50 is no more than 1 µM.

`COC/C=C/C(=O)NCc1cn2ccnc2c(-c2ccc(C(F)(F)F)cc2)n1` [I-219, (E)-4-methoxy-N-((8-(4-(trifluoromethyl)phenyl)imidazo[1,2-a]pyrazin-6-yl)methyl)but-2-enamide] showed a concentration for 50% growth inhibition (GI50) of 1 to 5 µM. With `O=C(O)c1ccc2c(c1)nc(N1CCOCC1)c1cccn12` [I-7, 4-Morpholinopyrrolo[1,2-a]quinoxaline-7-carboxylic acid] the figure was greater than 10 µM.

In turn, `N#Cc1cc(-c2ccc(C(F)(F)F)cc2)nc2cc(C(=O)O)ccc12` [I-401, 4-cyano-2-(4-(trifluoromethyl)phenyl)quinoline-7-carboxylic acid] registered a GI50 of 5 to 10 µM.

`O=C(O)c1ccc2c(OC3CC3)cc(-c3ccc(C(F)(F)F)cc3)nc2c1` [I-395, 4-cyclopropoxy-2-(4-(trifluoromethyl)phenyl)quinoline-7-carboxylic acid]: the GI50 was no more than 1 µM.

`C=CC(=O)NCc1cn2cc(C)nc2c(-c2ccc(C(F)(F)F)cc2)n1` [I-241, N-((2-methyl-8-(4-(trifluoromethyl)phenyl)imidazo[1,2-a]pyrazin-6-yl)methyl)acrylamide] returned a GI50 of no more than 1 µM. The value for `COc1cc(-c2ccc(C(F)(F)F)cc2)nc2cc(C(=O)N[C@@H](CO)c3ccc(O)cc3)ccc12` [I-363, (R)—N-(2-hydroxy-1-(4-hydroxyphenyl)ethyl)-4-methoxy-2-(4-(trifluoromethyl)phenyl)quinoline-7 carboxamide] was no more than 1 µM; that for `Cc1cc(-c2ccc(C(F)(F)F)cc2)nc2cc(C(=O)NC(C)CO)ccc12` (stereo not drawn) [I-260, N-(1-hydroxypropan-2-yl)-4-methyl-2-(4-(trifluoromethyl)phenyl)quinoline-7-carboxamide] was no more than 1 µM; that for `CS(=O)(=O)NCc1cn2cccc2c(-c2ccc(C(F)(F)F)cc2)n1` [I-320, N-((1-(4-(trifluoromethyl)phenyl)pyrrolo[1,2-a]pyrazin-3-yl)methyl)methanesulfonamide] was 1 to 5 µM. With `CC[C@H](CO)NC(=O)c1ccc2c(C)cc(-c3ccc(C(F)(F)F)cc3)nc2c1` [I-265, (R)—N-(1-hydroxybutan-2-yl)-4-methyl-2-(4-(trifluoromethyl)phenyl)quinoline-7-carboxamide] the figure was no more than 1 µM; with `O=C(O)c1ccc2c(c1)nc(-c1ccc(OC(F)F)cc1)c1cccn12` [I-193, 4-(4-(difluoromethoxy)phenyl)pyrrolo[1,2-a]quinoxaline-7-carboxylic acid], 1 to 5 µM. The value for `COc1cc(-c2ccc(C(F)(F)F)cc2)nc2cc(C(=O)N[C@@H](C)c3cccc(C(=O)O)c3)ccc12` [I-347, (S)-3-(1-(4-methoxy-2-(4-(trifluoromethyl)phenyl)quinoline-7-carboxamido)ethyl)benzoic acid] was 5 to 10 µM; that for `CN(C)CCNC(=O)c1ccc2c(c1)nc(-c1ccc(C(C)(C)C)cc1)c1cccn12` [I-188, 4-(4-(tert-butyl)phenyl)-N-(2-(dimethylamino)ethyl)pyrrolo[1,2-a]quinoxaline-7-carboxamide] was 1 to 5 µM.
